Earlier results as cited in PMC4412257, “2′,6′-Dimethylphenylalanine: A Useful Aromatic Amino Acid Surrogate for Tyr or Phe Residue in Opioid Peptides” (International Journal of Medicinal Chemistry, 2012).
No end group written: not given here.

Legend:
human ORL1 receptor = target: human ORL1 receptor; parameters: method as in PMID 16321540; details: read-out: IC50 ± SEM, ORL1 receptor, [3H]NOC; cell membrane expressing human ORL1 receptor in Hek-293 cells; cited from earlier work
guinea pig ileum (GPI) = tested on: guinea pig ileum (GPI); parameters: method as in PMID 16321540; details: cited from earlier work; for IC50: DYN analogs, read-out: GPI assay IC50 ± SEM; for Ke value of receptor selective antagonist CTAP (μ) / Ke value of receptor selective antagonist nor-BNI (κ) / Ke value of receptor selective antagonist N,N(Me)2Dmt-Tic-OH (δ): GPI assay, antagonist against the peptide
Aminopeptidase M = tested on: Aminopeptidase M; parameters: method as in PMID 16321540; details: determined by HPLC; cited from earlier work
[1] = parameters: method as in PMID 16321540; details: determined by HPLC; cited from earlier work
μ-opioid receptor = details: rat brain homogenate; read-out: IC50 ± SEM, opioid receptor, [3H]DAMGO (μ); cited from earlier work
δ-opioid receptor = details: rat brain homogenate; read-out: IC50 ± SEM, opioid receptor, [3H]DT (δ); cited from earlier work
κ-opioid receptor = target: κ-opioid receptor; parameters: method as in PMID 16321540; details: guinea pig brain homogenate; read-out: IC50 ± SEM, opioid receptor, [3H]U-69593 (κ); cited from earlier work

Substance	IC50 (human ORL1 receptor) [nM]	IC50 (guinea pig ileum (GPI)) [nM]	Half-life time, Aminopeptidase M (Aminopeptidase M) [min]	Half-life time, Rat brain homogenate [1] [min]	IC50 (μ-opioid receptor) [nM]	IC50 (δ-opioid receptor) [nM]	IC50 (κ-opioid receptor) [nM]	Ke value of receptor selective antagonist CTAP (μ) (guinea pig ileum (GPI)) [nM]	Ke value of receptor selective antagonist nor-BNI (κ) (guinea pig ileum (GPI)) [nM]	Ke value of receptor selective antagonist N,N(Me)2Dmt-Tic-OH (δ) (guinea pig ileum (GPI)) [nM]
DYN(1-13)-NH2 (YGGFLRRIRPKLK-NH2; UniProt P01213 207-219, looked up, fragment) [parent peptide, dynorphin A (1-13) amide, reference compound]	18.8 ± 3.01	3.14 ± 1.13	15.5	435	–	–	–	–	–	–
Met-enkephalin [reference compound]	–	–	<5	8.5	–	–	–	–	–	–
[Dmp^1,4]DYN(1-13)-NH2 [compound 28]	51.5 ± 1.62	1340 ± 303	–	770	251 ± 56.3	415 ± 185	5.45 ± 1.65	595	809	–
[Dmp^1,4]NOC(1-13)-NH2 [compound 31]	21.3 ± 3.2	–	–	27.1	56.8 ± 12.3	3410 ± 990	100 ± 29	–	–	–
[Dmp^1]DYN(1-13)-NH2 [compound 27]	6.6 ± 0.952	306 ± 68	>30	577	16.4 ± 2.35	10.1 ± 6.02	–	115	10	>1000
[Dmp^1]NOC(1-13)-NH2 [compound 30]	0.814 ± 0.09	–	28	60.3	25 ± 6.5	292 ± 61	38.8 ± 16.7	–	–	–
[Dmp^4]DYN(1-13)-NH2 [compound 26]	188 ± 18.2	32.2 ± 9.16	–	315	22.4 ± 10.2	931 ± 723	0.044 ± 0.035	108	0.63	198
[Dmp^4]NOC(1-13)-NH2 [compound 29]	51.6 ± 12.9	–	–	33.6	629 ± 433	> 10000	299 ± 63	–	–	–
